Results published in PMC7855844 (Bioorganic & medicinal chemistry, 2020).

Columns and labels:
Mcl-1 protein = Mcl-1 protein (Homo sapiens, UniProt Q07820); assay: Fluorescence polarization-based binding; conditions: for decrease in Mcl-1 inhibitory activity: compared with coumarin 33
A549 cells = assay: Cytotoxicity assay by SRB method; conditions: taxol in combination with Cpd 4 vs taxol alone

Sequence of Mcl-1 protein (Q07820 whole entry): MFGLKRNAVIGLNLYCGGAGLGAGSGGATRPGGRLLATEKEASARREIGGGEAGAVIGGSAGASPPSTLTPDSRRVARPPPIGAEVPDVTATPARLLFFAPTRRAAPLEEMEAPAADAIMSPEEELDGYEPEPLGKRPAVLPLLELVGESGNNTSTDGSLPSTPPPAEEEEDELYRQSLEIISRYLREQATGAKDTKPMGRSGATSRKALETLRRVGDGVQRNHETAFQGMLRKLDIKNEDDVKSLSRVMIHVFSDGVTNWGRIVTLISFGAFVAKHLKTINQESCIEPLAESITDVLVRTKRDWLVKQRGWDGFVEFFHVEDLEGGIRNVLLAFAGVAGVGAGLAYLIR

Compound: Cc1cc(=O)oc2c(CN3CCC(O)CC3)c(O)c(O)cc12 [Cpd 15, 6,7-dihydroxy-8-((4-hydroxypiperidin-1-yl)methyl)-4-methyl-2H-chromen-2-one]
- decrease of Mcl-1 inhibitory activity (Mcl-1 protein; compared with parent 1): more than 7 fold

Compound: O=c1ccc2cc(O)ccc2o1 [Cpd 34, 6-hydroxycoumarin]
- decrease in Mcl-1 inhibitory activity (Mcl-1 protein): 6 fold

Compound: O=c1ccc2ccc(O)cc2o1 [Cpd 35, 7-hydroxycoumarin]
- decrease in Mcl-1 inhibitory activity (Mcl-1 protein): little effect

Compound: CC(=O)O[C@H]1C(=O)[C@@]2(C)[C@H]([C@H](OC(=O)c3ccccc3)[C@]3(O)C[C@H](OC(=O)[C@H](O)[C@@H](NC(=O)c4ccccc4)c4ccccc4)C(C)=C1C3(C)C)[C@]1(OC(C)=O)CO[C@@H]1C[C@@H]2O [taxol]
- decrease of IC50 value for the combination compared with taxol alone (A549 cells): more than 10 fold

Compound: FAM-Bid: Bid BH3 peptide of 21-residue (residues 79–99) with a 6-carboxy-fluorescein succinimidyl ester fluorescence tag [reference compound]
- Kd (Mcl-1 protein; read-out: Kd for binding to Mcl-1 protein, saturation experiments): 13 nM
